“And” between values parts separate entries of the source, which are not always exact repeats. Identical values can stand only once. Like-named read-outs stand apart in the source and are kept apart here. Where no end group is shown, it is not given here.
Columns and labels:
panel of microbes = assay: Antimicrobial screening, summary over the panel of microbes; format: cell-based
Procedure: (§1) Antimicrobial and cytotoxicity assays were performed by CO-ADD (The Community for Antimicrobial Drug Discovery, Institute for Molecular Bioscience, The University of Queensland). […] Percentage growth inhibition was calculated using negative controls (media only) and positive controls (no peptide). For the hemolysis assays, human whole blood was washed three times with 3 volumes of 0.9% NaCl and then resuspended in 0.9% NaCl to a concentration of 0.5 × 10^8 cells/mL. Cells were incubated for 1 h at 37°C with or without the peptide. After incubation, plates were centrifuged at 1000 g for 10 min to pellet cells and debris and hemolysis determined by measuring the supernatant absorbance at 405 nm.

[1] = system: Escherichia coli ATCC 25922; assay: Antimicrobial growth inhibition (CO-ADD); format: cell-based; conditions: absorbance at 600 nm; for Max response ± SEM: percentage growth inhibition, mean ± SEM; for MIC: sigmoidal dose-response fit of growth inhibition
Procedure: as §1

[2] = system: Pseudomonas aeruginosa ATCC 27853; assay: Antimicrobial growth inhibition (CO-ADD); format: cell-based; conditions: absorbance at 600 nm; for Max response ± SEM: percentage growth inhibition, mean ± SEM; for MIC: sigmoidal dose-response fit of growth inhibition
Procedure: as §1

[3] = system: Klebsiella pneumoniae ATCC 700603; assay: Antimicrobial growth inhibition (CO-ADD); format: cell-based; conditions: absorbance at 600 nm; for Max response ± SEM: percentage growth inhibition, mean ± SEM; for MIC: sigmoidal dose-response fit of growth inhibition
Procedure: as §1

[4] = system: Staphylococcus aureus ATCC 43300; assay: Antimicrobial growth inhibition (CO-ADD); format: cell-based; conditions: for Max response ± SEM: percentage growth inhibition, mean ± SEM; for Max response ± SEM / MIC: absorbance at 600 nm; for MIC: sigmoidal dose-response fit of growth inhibition; for EC50: summary of Table S2
Procedure: as §1

[5] = system: Acinetobacter baumannii ATCC 19606; assay: Antimicrobial growth inhibition (CO-ADD); format: cell-based; conditions: for Max response ± SEM: percentage growth inhibition, mean ± SEM; for Max response ± SEM / MIC: absorbance at 600 nm; for MIC: sigmoidal dose-response fit of growth inhibition; for EC50: summary of Table S2
Procedure: as §1

[6] = system: Cryptococcus neoformans var. grubii H99; ATCC 208821; assay: Antifungal growth inhibition (CO-ADD); format: cell-based; conditions: for Max response ± SEM: percentage growth inhibition, difference in absorbance 600 and 570 nm after resazurin, 35°C 2 h, mean ± SEM; for MIC: sigmoidal dose-response fit of growth inhibition, resazurin read-out
Procedure: as §1

[7] = system: Candida albicans ATCC 90028; assay: Antifungal growth inhibition (CO-ADD); format: cell-based; conditions: absorbance at 530 nm; for Max response ± SEM: percentage growth inhibition, mean ± SEM; for MIC: sigmoidal dose-response fit of growth inhibition
Procedure: as §1

[8] = system: F11 (mouse neuroblastoma × rat dorsal root ganglion (DRG) neuron hybrid) cells; assay: Calcium imaging of F11 cells (FLIPR); format: cell-based; conditions: increase in [Ca2+]i
Procedure: F11 (mouse neuroblastoma × rat dorsal root ganglion (DRG) neuron hybrid) cells were cultured as previously described. Cells were maintained on Ham’s F12 media supplemented with 10 % fetal bovine serum, 100 μM hypoxanthine, 0.4 μM aminopterin, and 16 μM thymidine (Hybri-MaxTM, Sigma Aldrich). 384-well imaging plates (Corning, Lowell, MA, USA) were seeded 48 h prior to imaging resulting in 90 – 95% confluence at imaging. Cells were incubated for 30 min with Calcium 4 assay component A, as per the manufacturer’s instructions (Molecular Devices, Sunnyvale, CA) in physiological salt solution (PSS; composition in mM: 140 NaCl, 11.5 D-glucose, 5.9 KCl, 1.4 MgCl2, 1.2 NaH2PO4, 5 NaHCO3, 1.8 CaCl2, 10 HEPES) at 37°C. […] Signals were read every second for 10 s before, and 300 s after, the addition of peptides in PSS supplemented with 0.1% bovine serum albumin. All data represent mean ± SEM of a representative assay in triplicate. Fluorescence changes on peptide addition were compared to addition of negative control solution (0.1% BSA in PSS). The resulting maximum-minimum fluorescence in the 300 s period after peptide addition was recorded as the response.

Human red blood cells = assay: Hemolysis assay (CO-ADD); format: cell-based; conditions: 1 h at 37°C; for HC50 (concentration at 50% hemolytic activity): absorbance at 405 nm, sigmoidal dose-response fit; for Max response ± SEM: hemolysis, washed human blood 0.5 × 10^8 cells/mL in 0.9% NaCl, supernatant absorbance at 405 nm, mean ± SEM
Procedure: as §1

[9] = system: Human embryonic kidney cells ATCC CRL-1573; assay: Cytotoxicity assay (CO-ADD), resazurin; format: cell-based; conditions: resazurin fluorescence; for Max response ± SEM: percentage growth inhibition, 37°C 5% CO2, mean ± SEM; for CC50 (concentration at 50% cytotoxicity): sigmoidal dose-response fit
Procedure: as §1

F11 = assay: Ion permeability F11; format: cell-based, mouse; conditions: ions listed as permeant; - = none
HEK = assay: Ion permeability HEK; format: cell-based, Human; conditions: ions listed as permeant; - = none
HAP1 cells = assay: Cell viability assay, resazurin; format: cell-based
Procedure: In addition to the cytotoxicity assays performed by CO-ADD, we screened the synthetic peptides for toxicity in cell viability assays using HAP1, MM96L, and HEK293T cells. peptides were reconstituted in 100% DMSO then diluted in cell media (HAP1: IMDM (Sigma Aldrich) with 10% FBS and 1% Penicillin/Streptomycin (P/S); MM96L: RPMI (Gibco) with 10% FBS, 1% P/S and 1% GlutaMAX (Gibco); HEK293T: DMEM high glucose (Gibco), with 10% FBS and 1% P/S. Trypsinized cells ([…]) were seeded in each well of a 96-well plate. 0.01 to 1000 μM peptide was added to each well after 24 h, and the cells incubated for an additional 74 h. After incubation, the medium was aspirated from each well and 150 μL of fresh medium containing a 0.002% solution of resazurin (Sigma-Aldrich) was added to the wells and incubated for 4 h at 37 °C. The absorbance was measured at 570 nm using a microplate spectrophotometer (FLUOstar Omega, BMG Labtech, Germany). Percentage cell viability at concentrations of 10 and 100 μM peptide were compared with negative control by one-way ANOVA Dunnett’s multiple comparisons test (GraphPad Prism8).

[10] = system: Female fruit flies (D. melanogaster strain Canton-S); assay: Fruit fly injection assay (lethality, paralysis, climbing); format: in vivo, Drosophila melanogaster; conditions: 5 nmol/g injected, climbing assay 5 min after injection; significant versus control
Procedure: Female fruit flies (D. melanogaster strain Canton-S) were injected four to six days post-emergence. Female flies were used because their larger size makes injection easier. Groups of eight female flies were assayed in triplicate for each dose tested. Injection needles were formed from glass capillary tubes (#3-000-203-G/X, Drummond, Birmingham, AL, USA) using a micropipette puller (Sutter Instrument Co. Model P-97), with the fine tip manually trimmed afterwards using scissors. Needles then were filled with mineral oil, connected to a Nanoliter 2000 microinjector ([…], Bensenville, IL USA) equipped with a foot pedal, and ~1 μL of peptide solution or water aspirated. Each group of flies were immobilized by cooling for approximately 2 min on ice, and then decanted on the top of the ‘injection stage’, a petri dish filled with ice. Under a dissecting microscope, each fly was carefully impaled on the lateral thorax behind the wing, and 50.6 nL of venom peptide or water was injected. After injection, each group of flies were returned to their 5 mL plastic tube at room temperature and their behavior observed.

[11] = all strains of the panel (for Rm54a and Rm55a: strains other than S. aureus)
[12] = max-min fluorescence over 300 s, read-out: EC50 (F11 cells, Table S2)

Substance	Growth inhibition over the microbial strains examined (panel of microbes; [11])	Max response ± SEM [1]	MIC [1] [µM]	Max response ± SEM [2]	MIC [2] [µM]	Max response ± SEM [3]	MIC [3] [µM]	Max response ± SEM [4]	MIC [4] [µM]	Max response ± SEM [5]	MIC [5] [µM]	Max response ± SEM [6]	MIC [6] [µM]	Max response ± SEM [7]	MIC [7] [µM]	HC50 (concentration at 50% hemolytic activity) (Human red blood cells)	Max response ± SEM [9]	CC50 (concentration at 50% cytotoxicity) [9]	ion permeability F11 (F11)	ion permeability HEK (HEK)	further results
RNVPRWFTPRL-NH2 [Rm52d]	no inhibitory activity	1 ± 2	>22	7 ± 0	>22	5 ± 0	>22	12 ± 6	>22	5 ± 2	>22	-13 ± 5	>22	2 ± 1	>22	–	–	–	–	–	–
ALWDTIKKWVAKVLPLVKNALK-NH2 [Rm20a]	–	100 ± 0	13	14 ± 2	>13	71 ± 29	>13	102 ± 2	1.6	100 ± 1	≤0.10	88 ± 1	0.79	8 ± 7	>13	>13 (HC50) uM	57 ± 5	11 µM	Ca2+,Na+,Th+	Ca2+,Na+,Th+	EC50 [8, 12]: 8.1 µM; Growth inhibition over the microbial strains examined (panel of microbes; all microbial strains except Pseudomonas aeruginosa and Candida albicans): complete or near-complete growth inhibition of all microbial strains; EC50 [5]: ≤ 0.1 µM; Cytotoxicity to HAP cells (HAP1 cells): cytotoxic to HAP cells; HAP cell viability (HAP1 cells; 10 μM peptide, n = 3 per group): significantly reduced HAP cell viability
ILPALIPVFASLLPWAIKKF-NH2 [Rm55b]	–	11 ± 1	>14	3 ± 1	>14	12 ± 1	>14	103 ± 1	≤0.11	98 ± 0	14	86 ± 4	11	3 ± 0	>14	7.4 µM	98 ± 1	2.6 µM	Ca2+,Na+,Th+	Ca2+,Na+,Th+	EC50 [8, 12]: 4 µM; Max response ± SEM (Human red blood cells): 40 ± 3; Motor behavior (climbing assay) [10]: disrupted motor behavior; Cytotoxicity to HAP cells (HAP1 cells): cytotoxic to HAP cells; HAP cell viability (HAP1 cells; 10 μM peptide, n = 3 per group): significantly reduced HAP cell viability
FIGGLIKFIAKFVPKILPFFQKKN-OH [Rm34a]	complete or near-complete growth inhibition of all microbial strains	98 ± 0	8.6	85 ± 6	11	70 ± 28	11	102 ± 2	≤0.09	100 ± 0	≤0.09	101 ± 0	6.1	100 ± 2	0.72	3.3 µM	57 ± 5	1.7 µM	Ca2+,Na+,Th+	Ca2+,Na+,Th+	EC50 [8, 12]: 4.8 µM; EC50 [4]: ≤ 0.09 µM; EC50 [5]: ≤ 0.09 µM; Motor behavior (climbing assay) [10]: disrupted motor behavior; Cytotoxicity to HAP cells (HAP1 cells): cytotoxic to HAP cells; HAP cell viability (HAP1 cells; 10 μM peptide, n = 3 per group): significantly reduced HAP cell viability
FWLKGGRGDG-NH2 [Rm53a/b]	no inhibitory activity	4 ± 1 and 3 ± 1	>29	12 ± 4 and 11 ± 5	>29	5 ± 0	>29	5 ± 1 and 7 ± 2	>29	5 ± 1 and 4 ± 2	>29	–	>29	–	>29	–	–	–	–	–	–
FLPFLIPVIASLVSSLK-NH2 [Rm55a]	not affecting any of the other strains examined	4 ± 1	>17	10 ± 1	>17	8 ± 1	>17	103 ± 2	≤0.14	24 ± 1	>17	-10 ± 0	>17	3 ± 0	>17	>17 (HC50) uM	51 ± 0	>17 (CC50) uM	Ca2+,Na+,Th+	Ca2+,Na+	EC50 ([8]; max – min fluorescence, n = 3, four-parameter Hill equation, read-out: EC50 (effect on F11 cells, Fig. 5)): 9.2 µM; Max response ± SEM (Human red blood cells): 15 ± 6; Inhibition of S. aureus (in words) [4]: complete inhibition; EC50 [4]: ≤ 0.14 µM; Cytotoxicity to HAP cells (HAP1 cells): cytotoxic to HAP cells; HAP cell viability (HAP1 cells; 100 μM peptide, n = 3, mean ± SEM): 24.6 ± 8.1%
